Test results taken from US20150202167A1, “Trans-Clomiphene Formulations and Uses Thereof” (REPROS THERAPEUTICS INC., priority 2012, published 2015).
Values belong to the compound of their own block, whether it stands above or below them.

Legend:
[1] = noted by Ernst et al.; cited from earlier work
[2] = cited from earlier work
[3] = Particle size analysis by laser diffraction (Malvern Mastersizer 2000); assay type: physicochemical; settings: for d10: 10% of the total volume of particles is less than the indicated size; for d10 / d50 / d90: final method conditions, 0.1% (w/v) Span 85 in hexane; for d50: 50% of the total volume of particles is less than the indicated size; for d90: 90% of the total volume of particles is less than the indicated size
Text: Trans-clomiphene is characterized for size using an instrument adapted to measure equivalent spherical volume diameter, such as a Malvern Mastersizer 2000 laser diffraction particle size analyzer or equivalent instrument. After being characterized for size, the trans-clomiphene is then milled, if necessary, preferably using a pin mill under suitable conditions of mill rotation rate and feed rate, to bring the particle size value within the above mentioned limits according to the invention. The efficiency of milling is checked by sampling using a Malvern Mastersizer 2000 laser diffraction particle size analyzer and the final particle size is checked in a similar manner.
The values found from characterizing a large number of “unknown” particles can be plotted frequency vs. diameter. This gives a characteristic curve representing size distribution of the sample, i.e., cumulative percentage under size distribution curve. Values from this can be read off directly or plotted on log-probability paper to give an appropriate straight line. The mean equivalent spherical volume diameter is the 50% undersize value. The mean equivalent spherical volume diameter found is thus a statistical representation of a theoretical particle having the same property as the “unknown” particle. The following is a description by way of example.
Repeated particle size measurements of the sample dispersed in 0.1% (w/v) Span™ 85 in hexane were collected while recirculating over the course of approximately five minutes with a pump speed of 1000 rpm. Particle size (d10, d50, d90) was plotted versus the recirculation time. Values for both the d10 and d50 fell within a narrow range for the duration. The decrease in the d90 primarily occurred over the first 90 seconds with a gradual decrease thereafter.
Repeated particle size measurements of the sample were collected while recirculating for 90 seconds with increasing pump speeds to examine the effect of pump speed on particle size. […] A pump speed of 1500 rpm was selected to optimize both dispersion of agglomerates and suspension of the larger particles and to minimize attrition of the blades and needles.
One particle size measurement of each sample of trans-clomiphene citrate was collected using the final method conditions. Three of the lots shared a similar bimodal particle size distribution whereas one lot contained a third mode consisting of much larger particles. The remaining lot of was bimodal but reflected much larger particle sizes than the distributions of the earlier three lots with bimodal distributions.
Particle size data was acquired using a Malvern Instruments MS2000 equipped with a Hydro 2000 μP dispersion unit. Data was collected and analyzed using Mastersizer 2000 v. 5.60 software using volume based measurements. NIST-traceable glass beads were used as the reference standard.
Particle size of trans-clomiphene citrate using the final method conditions is reproduced below: […]

[4] = Evaluation of dispersants for trans-clomiphene citrate; assay type: physicochemical; settings: 0.01% (w/v) Tween 20 (polysorbate 20) in water
Experimental: 0.1% (w/v) Lecithin in Isopar G™, 0.1% (w/v) Span™ 85 (sorbitane trioleate) in hexane, and 0.01% (w/v) Tween® 20 (polysorbate 20) in water were evaluated as dispersants for trans-clomiphene citrate. Samples suspended easily in each of the two organic dispersants and settled out of suspension slowly. […] Samples dispersed in the Isopar G™-based and hexane-based dispersants were examined microscopically. […] 0.1% (w/v) Span™ 85 in hexane was selected for further analysis.

Compound: CCN(CC)CCOc1ccc(/C(=C(/Cl)c2ccccc2)c2ccccc2)cc1 (single isomer, unassigned) [trans-isomer, trans-2-(p-(2-chloro-1,2-diphenylvinyl)phenoxy)triethylamine]
estrogenic / antiestrogenic character [1]: antiestrogenic

Compound: CCN(CC)CCOc1ccc(C(=C(Cl)c2ccccc2)c2ccccc2)cc1 [clomiphene]
FSH, LH ([2]; both young and old men after treatment with clomiphene): increases | free and total testosterone ([2]; men, young men showing significant increases): increases

Compound: CCN(CC)CCOc1ccc(/C(=C(/Cl)c2ccccc2)c2ccccc2)cc1.O=C(O)CC(O)(CC(=O)O)C(=O)O [compound 16204]
d10 [3]: 8.058 μm | d50 [3]: 106.743 μm | d90 [3]: 318.464 μm

Compound: CCN(CC)CCOc1ccc(/C(=C(/Cl)c2ccccc2)c2ccccc2)cc1.O=C(O)CC(O)(CC(=O)O)C(=O)O [compound 24712]
d10 [3]: 4.038 μm | d50 [3]: 13.902 μm | d90 [3]: 218.573 μm

Next, values leading:

d10 [3]: 4.794 μm | d50 [3]: 13.418 μm | d90 [3]: 70.289 μm
Compound: CCN(CC)CCOc1ccc(/C(=C(/Cl)c2ccccc2)c2ccccc2)cc1.O=C(O)CC(O)(CC(=O)O)C(=O)O [compound 24867]

d10 [3]: 4.850 μm | d50 [3]: 13.455 μm | d90 [3]: 76.891 μm
Compound: CCN(CC)CCOc1ccc(/C(=C(/Cl)c2ccccc2)c2ccccc2)cc1.O=C(O)CC(O)(CC(=O)O)C(=O)O [compound 31249]

d10 [3]: 3.373 μm | d50 [3]: 9.664 μm | d90 [3]: 44.995 μm | Vol under % ([3]; size 0.010 μm): 0.00% | Vol under % ([3]; size 0.011 μm): 0.00% | Vol under % ([3]; size 0.013 μm): 0.00% | Vol under % ([3]; size 0.015 μm): 0.00% | Vol under % ([3]; size 0.017 μm): 0.00% | Vol under % ([3]; size 0.020 μm): 0.00% | Vol under % ([3]; size 0.023 μm): 0.00% | Vol under % ([3]; size 0.026 μm): 0.00% | Vol under % ([3]; size 0.030 μm): 0.00% | Vol under % ([3]; size 0.035 μm): 0.00% | Vol under % ([3]; size 0.040 μm): 0.00% | Vol under % ([3]; size 0.046 μm): 0.00% | Vol under % ([3]; size 0.052 μm): 0.00% | Vol under % ([3]; size 0.060 μm): 0.00% | Vol under % ([3]; size 0.069 μm): 0.00% | Vol under % ([3]; size 0.079 μm): 0.00% | Vol under % ([3]; size 0.091 μm): 0.00% | Vol under % ([3]; size 0.105 μm): 0.00% | Vol under % ([3]; size 0.120 μm): 0.00% | Vol under % ([3]; size 0.138 μm): 0.00% | Vol under % ([3]; size 0.158 μm): 0.00% | Vol under % ([3]; size 0.182 μm): 0.00% | Vol under % ([3]; size 0.209 μm): 0.00% | Vol under % ([3]; size 0.240 μm): 0.00% | Vol under % ([3]; size 0.275 μm): 0.00% | Vol under % ([3]; size 0.316 μm): 0.00% | Vol under % ([3]; size 0.363 μm): 0.00% | Vol under % ([3]; size 0.417 μm): 0.00% | Vol under % ([3]; size 0.479 μm): 0.00% | Vol under % ([3]; size 0.550 μm): 0.00% | Vol under % ([3]; size 0.631 μm): 0.00% | Vol under % ([3]; size 0.724 μm): 0.00% | Vol under % ([3]; size 0.832 μm): 0.00% | Vol under % ([3]; size 0.965 μm): 0.02% | Vol under % ([3]; size 1.096 μm): 0.10% | Vol under % ([3]; size 1.259 μm): 0.28% | Vol under % ([3]; size 1.445 μm): 0.60% | Vol under % ([3]; size 1.660 μm): 1.12% | Vol under % ([3]; size 1.905 μm): 1.93% | Vol under % ([3]; size 2.188 μm): 3.10% | Vol under % ([3]; size 2.512 μm): 4.72% | Vol under % ([3]; size 2.884 μm): 6.86% | Vol under % ([3]; size 3.311 μm): 9.59% | Vol under % ([3]; size 3.802 μm): 12.94% | Vol under % ([3]; size 4.385 μm): 16.94% | Vol under % ([3]; size 5.012 μm): 21.58% | Vol under % ([3]; size 5.754 μm): 26.82% | Vol under % ([3]; size 6.607 μm): 32.58% | Vol under % ([3]; size 7.586 μm): 38.74% | Vol under % ([3]; size 8.710 μm): 45.14% | Vol under % ([3]; size 10.00 μm): 51.59% | Vol under % ([3]; size 11.482 μm): 57.87% | Vol under % ([3]; size 13.183 μm): 63.80% | Vol under % ([3]; size 15.136 μm): 69.20% | Vol under % ([3]; size 17.378 μm): 73.95% | Vol under % ([3]; size 19.953 μm): 77.98% | Vol under % ([3]; size 22.909 μm): 81.29% | Vol under % ([3]; size 26.303 μm): 83.92% | Vol under % ([3]; size 30.200 μm): 85.99% | Vol under % ([3]; size 34.674 μm): 87.62% | Vol under % ([3]; size 39.811 μm): 88.95% | Vol under % ([3]; size 45.709 μm): 90.13% | Vol under % ([3]; size 52.481 μm): 91.28% | Vol under % ([3]; size 60.256 μm): 92.50% | Vol under % ([3]; size 69.183 μm): 93.84% | Vol under % ([3]; size 79.433 μm): 95.28% | Vol under % ([3]; size 91.201 μm): 96.72% | Vol under % ([3]; size 104.713 μm): 98.02% | Vol under % ([3]; size 120.226 μm): 99.04% | Vol under % ([3]; size 138.038 μm): 99.72% | Vol under % ([3]; size 158.489 μm): 99.97% | Vol under % ([3]; size 181.970 μm): 100.00% | Vol under % ([3]; size 208.930 μm): 100.00% | Vol under % ([3]; size 239.883 μm): 100.00% | Vol under % ([3]; size 275.423 μm): 100.00% | Vol under % ([3]; size 316.228 μm): 100.00% | Vol under % ([3]; size 363.078 μm): 100.00% | Vol under % ([3]; size 416.869 μm): 100.00% | Vol under % ([3]; size 478.630 μm): 100.00% | Vol under % ([3]; size 549.541 μm): 100.00% | Vol under % ([3]; size 630.957 μm): 100.00% | Vol under % ([3]; size 724.438 μm): 100.00% | Vol under % ([3]; size 831.764 μm): 100.00% | Vol under % ([3]; size 954.993 μm): 100.00% | Vol under % ([3]; size 1096.478 μm): 100.00%
Compound: CCN(CC)CCOc1ccc(/C(=C(/Cl)c2ccccc2)c2ccccc2)cc1.O=C(O)CC(O)(CC(=O)O)C(=O)O [compound 32305]

Dissolution of the sample suspended in aqueous dispersant [4]: Partial dissolution
Compound: trans-clomiphene citrate
